From patent US9993001B2, “Herbicidal composition” (ISHIHARA SANGYO KAISHA, LTD., priority 2014, dated 2018)

Columns and labels:
Assay type in all cases: in vivo
[1] = system: annual bluegrass (Poa annua L.); assay: Test Example 19: pot, soil treatment, metobromuron + chlorpropham; conditions: 250 g/ha, soil treatment, pot, 26th day after treatment, read-out: Growth inhibition rate of annual bluegrass (%) Measured value
[2] = system: barnyardgrass (Echinochloa crus-qalli L.); assay: Test Example 1: soybean field, soil treatment, metobromuron + chlorpropham; conditions: 916 g/ha, soil treatment, soybean field, 19th day after treatment, read-out: Growth inhibition rate of barnyardgrass (%) Measured value
From the text: When the herbicidal activity in a case where two active ingredients are combined, is larger than the simple sum of the respective herbicidal activities of the two active ingredients (the expected activity), it is called a synergistic effect. The activity expected by the combination of two active ingredients can be calculated as follows (Colby S. R., “Weed”, vol. 15, p. 20-22, 1967). E=α+β−(α×β[…]) where α: growth inhibition rate when treated with x (g/ha) of herbicide X, • β: growth inhibition rate when treated with y (g/ha) of herbicide Y, • E: growth inhibition rate expected when treated with x (g/ha) of herbicide X and y (g/ha) of herbicide Y. […]
On the 19th day after treatment, the state of growth of barnyardgrass was visually observed and evaluated in accordance with the following standards. The growth inhibition rate (%) [measured value] and the growth inhibition rate (%) [calculated value] calculated by the Colby's method, are shown in Table 2. […]

[3] = system: giant foxtail (Setaria faberi Herrm.); assay: Test Example 16: pot, soil treatment, metobromuron + chlorpropham; conditions: soil treatment, pot, 21st day after treatment, read-out: Growth inhibition rate of giant foxtail (%) Measured value
From the text: (§1) When the herbicidal activity in a case where two active ingredients are combined, is larger than the simple sum of the respective herbicidal activities of the two active ingredients (the expected activity), it is called a synergistic effect. The activity expected by the combination of two active ingredients can be calculated as follows (Colby S. R., “Weed”, vol. 15, p. 20-22, 1967). E=α+β−(α×β[…]) where α: growth inhibition rate when treated with x (g/ha) of herbicide X, • β: growth inhibition rate when treated with y (g/ha) of herbicide Y, • E: growth inhibition rate expected when treated with x (g/ha) of herbicide X and y (g/ha) of herbicide Y.
(§2) On the 19th day after treatment, the state of growth of barnyardgrass was visually observed and evaluated in accordance with the following standards. The growth inhibition rate (%) [measured value] and the growth inhibition rate (%) [calculated value] calculated by the Colby's method, are shown in Table 2.
(§3) Growth inhibition rate (%)=inhibition rate) (%) of 0 (equivalent to the non-treated area) to 100 (complete kill)
(§4) Soil was put into a 1/300,000 ha pot, and seeds of barnyardgrass (Echinochloa crus-galli L.) were sown. On the day after seeding, predetermined amounts of SC containing metobromuron as active ingredient (same as in Test Example 1) and EC containing chlorpropham as active ingredient (same as in Test Example 1) were diluted with water corresponding to 1,000 L per hectare and applied for soil treatment.
(§5) On the 21st day after treatment, the state of growth of barnyardgrass was visually observed and evaluated in the same manner as in Test Example 1.
The test was carried out in the same manner as in Test Example 15 except that barnyardgrass (Echinochloa crus-galli L.) was changed to giant foxtail (Setaria faberi Herrm.), to obtain the results as shown in Table 17.

[4] = system: black nightshade (Solanum nigrum L.); assay: Test Example 17: pot, soil treatment, metobromuron + chlorpropham; conditions: soil treatment, pot, 21st day after treatment, read-out: Growth inhibition rate of black nightshade (%) Measured value
From the text: as §1, §2, §3, §4, §5
The test was carried out in the same manner as in Test Example 15 except that barnyardgrass (Echinochloa crus-galli L.) was changed to black nightshade (Solanum nigrum L.), to obtain the results as shown in Table 18.

[5] = system: barnyardgrass (Echinochloa crus-galli L.); assay: Test Example 18: pot, soil treatment, metobromuron + chlorpropham; conditions: 500 g/ha, soil treatment, pot, 26th day after treatment, read-out: Growth inhibition rate of barnyardgrass (%) Measured value
From the text: as §1, §2, §3
(§6) Soil was put into a 1/300,000 ha pot, and seeds of barnyardgrass (Echinochloa crus-galli L.) were sown. […]
(§7) On the 26th day after treatment, the state of growth of barnyardgrass was visually observed and evaluated in the same manner as in Test Example 1.

[6] = system: barnyardgrass (Echinochloa crus-galli L.); assay: Test Example 32: pot, soil treatment, metobromuron + chlorpropham; conditions: soil treatment, pot, 26th day after treatment, read-out: Growth inhibition rate of barnyardgrass (%) Measured value
From the text: as §1, §2, §3, §4, §7

[7] = system: common lambsquarters (Chenopodium album L.); assay: Test Example 20: pot, soil treatment, metobromuron + chlorpropham; conditions: soil treatment, pot, 26th day after treatment, read-out: Growth inhibition rate of common lambsquarters (%) Measured value
From the text: as §1, §2, §3, §4, §7
The test was carried out in the same manner as in Test Example 18 except that barnyardgrass (Echinochloa crus-galli L.) was changed to common lambsquarters (Chenopodium album L.), to obtain the results as shown in Table 21.

[8] = system: barnyardgrass (Echinochloa crus-galli L.); assay: Test Example 15: pot, soil treatment, metobromuron + chlorpropham; conditions: 750 g/ha, soil treatment, pot, 21st day after treatment, read-out: Growth inhibition rate of barnyardgrass (%) Measured value
From the text: as §1, §2, §3, §6, §5

[9] = system: common purslane (Portulaca oleracea L.); assay: Test Example 12: corn field, soil treatment, metobromuron + nicosulfuron; conditions: 30 g/ha, soil treatment, corn field, 30th day after treatment, read-out: Growth inhibition rate of common purslane (%) Measured value
From the text: as §1, §2
(§8) Growth inhibition rate (%)=inhibition rate) (%) of 0 (equivalent to the non-treated area) to 100 (complete kill) […]
On the 30th day after treatment, the state of growth of common purslane (Portulaca oleracea L.) which occurred naturally, was visually observed and evaluated in the same manner as in Test Example 1.

[10] = system: large crabgrass (Diqitaria sanquinalis L.); assay: Test Example 11: corn field, foliar treatment, metobromuron + nicosulfuron; conditions: Digitaria sanguinalis; 30 g/ha; foliar treatment at 1.5 to 2.0 leaf stage, corn field; 30th day after treatment; read-out: Growth inhibition rate of large crabgrass (%) Measured value
From the text: as §1, §2, §8
On the 30th day after treatment, the state of growth of large crabgrass was visually observed and evaluated in the same manner as in Test Example 1.

polygonaceae weeds = assay: Test Example 10: corn field, soil treatment, metobromuron + pendimethalin; conditions: 600 g/ha; soil treatment, corn field; 49th day after treatment; read-out: Growth inhibition rate of Polygonaceae weeds (%) Measured value
From the text: as §1, §2, §8
On the 49th day after treatment, the state of growth of polygonaceae weeds which occurred naturally, was visually observed and evaluated in the same manner as in Test Example 1, The results are shown in Table 11.

[11] = system: large crabgrass (Digitaria sanquinalis L.); assay: Test Example 28: pot, soil treatment, metobromuron + pendimethalin; conditions: 62.5 g/ha, soil treatment, pot, 27th day after treatment, read-out: Growth inhibition rate of large crabgrass (%) Measured value
From the text: as §1, §2, §3
Soil was put into a 1/300,000 ha pot, and seeds of large crabgrass (Digitaria sanquinalis L.) were sown. On the day after seeding, predetermined amounts of SC containing metobromuron as active ingredient (same as in Test Example 1) and EC containing pendimethalin as active ingredient (same as in Test Example 10) were diluted with water corresponding to 1,000 L per hectare and applied for soil treatment.
On the 27th day after treatment, the state of growth of large crabgrass was visually observed and evaluated in the same manner as in Test Example 1.

[12] = system: redroot pigweed (Amaranthus retroflexus L.); assay: Test Example 9: corn field, soil treatment, metobromuron + S-metolachlor; conditions: 1000 g/ha, soil treatment, corn field, 49th day after treatment, read-out: Growth inhibition rate of redroot pigweed (%) Measured value
From the text: as §1, §2, §8
On the 49th day after treatment, the state of growth of redroot pigweed (Amaranthus retroflexus L.) which occurred naturally, was visually observed and evaluated in the same manner as in Test Example 1.

[13] = system: spotted knotweed (Polygonum lapathifolium L.); assay: Test Example 2: soybean field, soil treatment, metobromuron + S-metolachlor; conditions: Persicaria lapathifolia; 1000 g/ha; soil treatment, soybean field; 50th day after treatment; read-out: Growth inhibition rate of spotted knotweed (%) Measured value
From the text: as §1, §2, §8
On the 50th day after treatment, the state of growth of spotted knotweed was visually observed and evaluated in the same manner as in Test Example 1.

[14] = system: Nepalese Smartweed (Persicaria nepalensis (Meisn.) H. Gross); assay: Test Example 3: soybean field, soil treatment, metobromuron + S-metolachlor; conditions: 1000 g/ha, soil treatment, soybean field, 50th day after treatment, read-out: Growth inhibition rate of Nepalese Smartweed (%) Measured value
From the text: as §1, §2, §8
On the 50th day after treatment, the state of growth of Nepalese Smartweed (Persicaria nepalensis (Meisn.) H. Gross) which occurred naturally, was visually observed and evaluated in the same manner as in Test Example 1.

[15] = system: Nepalese Smartweed (Persicaria nepalensis (Meisn.) H. Gross); assay: Test Example 6: adzuki bean field, soil treatment, metobromuron + S-metolachlor; conditions: 1000 g/ha, soil treatment, adzuki bean field, 39th day after treatment, read-out: Growth inhibition rate of Nepalese Smartweed (%) Measured value
From the text: as §1, §2, §3
In an adzuki bean agricultural field (9.6 square meters per one test section), predetermined amounts of SC containing metobromuron as active ingredient (same as in Test Example 1) and EC containing S-metolachlor as active ingredient (same as in Test Example 2) were diluted with water corresponding to 1,000 L per hectare and applied for soil treatment, prior to germination of adzuki bean and weeds.
On the 39th day after treatment, the state of growth of Nepalese Smartweed (Persicaria nepalensis (Meisn.) H. Gross) which occurred naturally, was visually observed and evaluated in the same manner as in Test Example 1.

[16] = system: common lambsquarters (Chenopodium album L.); assay: Test Example 8: corn field, soil treatment, metobromuron + S-metolachlor; conditions: 1000 g/ha, soil treatment, corn field, 28th day after treatment, read-out: Growth inhibition rate of common lambsquarters (%) Measured value
From the text: as §1, §2, §8
On the 28th day after treatment, the state of growth of common lambsquarters (Chenopodium album L.) which occurred naturally, was visually observed and evaluated in the same manner as in Test Example 1.

**Q.** What does the source list for `CC(C)OC(=O)Nc1cccc(Cl)c1` [Chlorpropham, isopropyl 3-chlorocarbanilate]?
**A.** inhibition at 250 g/ha [1]: 10%; inhibition at 916 g/ha [2]: 8%; inhibition at 750 g/ha ([3]; 750 g/ha): 0%; inhibition at 1000 g/ha ([3]; 1000 g/ha): 0%; inhibition at 750 g/ha ([4]; 750 g/ha): 0%; inhibition at 1000 g/ha ([4]; 1000 g/ha): 0%; inhibition at 500 g/ha [5]: 70%; inhibition at 125 g/ha ([6]; 125 g/ha): 10%; inhibition at 250 g/ha ([6]; 250 g/ha): 0%; inhibition at 500 g/ha ([6]; 500 g/ha): 70%; inhibition at 125 g/ha ([7]; 125 g/ha): 20%; inhibition at 250 g/ha ([7]; 250 g/ha): 30%; inhibition at 1000 g/ha ([7]; 1000 g/ha): 50%; inhibition at 750 g/ha [8]: 0%

**Q.** For `COc1cc(OC)nc(NC(=O)NS(=O)(=O)c2ncccc2C(=O)N(C)C)n1` [Nicosulfuron, 2-[(4,6-dimethoxypyrimidin-2-ylcarbamoyl)sulfamoyl]-N,N-dimethyl nicotinamide], which inhibition at 30 g/ha [9] is on record?
**A.** The inhibition at 30 g/ha was 55%.

**Q.** What about the inhibition at 30 g/ha [10] of the same compound?
**A.** Its inhibition at 30 g/ha is 10%.

**Q.** With `CCC(CC)Nc1c([N+](=O)[O-])cc(C)c(C)c1[N+](=O)[O-]` [Pendimethalin, N-(1-ethylpropyl)-2,6-dinitro-3,4-xylidine] as the compound, how does the inhibition at 600 g/ha (polygonaceae weeds) read?
**A.** Its inhibition at 600 g/ha is 73%.

**Q.** What about the inhibition at 62.5 g/ha [11] of the same compound?
**A.** The inhibition at 62.5 g/ha was 70%.

**Q.** `CCc1cccc(C)c1N(C(=O)CCl)[C@@H](C)COC` [S-Metolachlor, 2-chloro-N-(6-ethyl-o-tolyl)-N-[(1S)-2-methoxy-1-methylethyl]acetamide] was tested. Which inhibition at 1000 g/ha [12] did it give?
**A.** Its inhibition at 1000 g/ha is 45%.

**Q.** And the inhibition at 1000 g/ha [13]?
**A.** The inhibition at 1000 g/ha was 59%.

**Q.** What about the inhibition at 1000 g/ha [14] of the same compound?
**A.** The inhibition at 1000 g/ha was 10%.

**Q.** And the inhibition at 1000 g/ha [15]?
**A.** Its inhibition at 1000 g/ha is 75%.

**Q.** And the inhibition at 1000 g/ha [16]?
**A.** The inhibition at 1000 g/ha was 69%.
